In brackets after ≈: the same amount, converted by molar mass. Like-named read-outs stand apart in the source and are kept apart here. Numbered stars: 1 amine (or outer) side, 2 acyl side, 3 side chain; on linkers, the order of the positions; unused ones are H or OH. Bridge positions count the residues as written; N and C are the ends. Side chains are listed from the residue outwards. Peptide text beside a SMILES is read from it. * marks the point of attachment. C20 diacid = O=C(O)CCCCCCCCCCCCCCCCCCC(=O)*; γGlu = O=C(O)[C@H](CCC(=O)[*:2])N[*:1] Bounds are passed on as bounds.

Results on 3 molecules are retold here after patent publication US9023789B2, “Amylin analogs and pharmaceutical compositions thereof” (Novo Nordisk A/S, priority 2012, dated 2015).

Data set [1] can be described thus: ASSAY (III) ThT fibrillation assay for physical stability. The class given is physicochemical. The essentials:
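Physical stability scored by ThT fluorescence (444 nm excitation, 485 nm emission) tracked every 20 min during 37 °C incubation with 960 rpm shaking, ThT at 1 μM final. Values are replicate means with SD at chosen times; HPLC against pramlintide standard gives initial and post-assay soluble concentrations.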

A short description of data set [2]: ASSAY (IV) determination of solubility. It counts as physicochemical. The essentials: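 Solubility measured by UPLC of supernatant after centrifugation, following 18 h at room temperature. Peptide ([…] in water) was diluted 1:1 into 100 mM glycylglycine (pH 3.0, 4.0, 5.0) or bistrispropane (pH 6.0-8.0).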
The target of data set [3] is T1, rat amylin receptor (rat calcitonin receptor + rat RAMP 3) (Rattus norvegicus, UniProt P32214+Q9JJ73).
T1 construct: expressed in transfected cells; host or cells: BHK tk'ts 13 (transient, FuGENE 6), membranes
T1 sequence (P32214 25-479 isoform P32214-2 limits assumed): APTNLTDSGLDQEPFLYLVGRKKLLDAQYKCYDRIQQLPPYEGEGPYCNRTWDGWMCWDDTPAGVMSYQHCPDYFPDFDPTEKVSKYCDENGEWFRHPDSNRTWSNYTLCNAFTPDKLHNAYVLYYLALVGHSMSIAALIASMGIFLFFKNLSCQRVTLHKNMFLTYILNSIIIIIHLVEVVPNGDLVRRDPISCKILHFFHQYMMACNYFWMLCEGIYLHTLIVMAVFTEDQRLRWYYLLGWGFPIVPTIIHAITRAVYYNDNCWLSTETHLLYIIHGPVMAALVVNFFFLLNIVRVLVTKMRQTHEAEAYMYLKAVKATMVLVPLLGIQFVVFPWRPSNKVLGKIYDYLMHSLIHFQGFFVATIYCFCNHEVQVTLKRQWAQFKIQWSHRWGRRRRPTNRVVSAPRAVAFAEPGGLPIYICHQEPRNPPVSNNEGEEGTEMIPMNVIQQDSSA
T1 sequence (Q9JJ73 23-147 partner): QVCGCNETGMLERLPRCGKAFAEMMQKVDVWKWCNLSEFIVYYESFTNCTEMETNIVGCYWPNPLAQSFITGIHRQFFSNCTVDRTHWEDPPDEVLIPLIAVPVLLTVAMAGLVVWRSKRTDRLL
Nature of the data set: ASSAY (VI) binding to the rat amylin receptor. Conditions: for IC50: binding to rat amylin receptor, read-out: rAmylin-R bind IC50. The method, boiled down:
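The cell-membrane assay assessed binding at the rat amylin receptor. BHK tk′ts 13 cells were transfected transiently with rat calcitonin receptor, with FuGENE® 6 (Roche) as the transfection reagent, used per the manufacturer's recommendations. Approximately 48 hours after transfection the cells were harvested, and membranes were prepared for measuring binding.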

[4] abbreviates: bistrispropane buffer, pH 6.5, read-out: Solubility pH 6.5 Concentration.
[5] abbreviates: bistrispropane buffer, pH 7.5, read-out: Solubility pH 7.5 Concentration.
[6] abbreviates: bistrispropane buffer, pH 6.0, read-out: Solubility pH 6.0 Concentration.
The mark [7] stands for this setting: bistrispropane buffer, pH 7.0, read-out: Solubility pH 7.0 Concentration.
Where [8] appears, read: bistrispropane buffer, pH 8.0, read-out: Solubility pH 8.0 Concentration.
The mark [9] stands for this setting: glycylglycine buffer, pH 3.0, read-out: Solubility pH 3.0 Concentration.
Where [10] appears, read: glycylglycine buffer, pH 4.0, read-out: Solubility pH 4.0 Concentration.
Where [11] appears, read: glycylglycine buffer, pH 5.0, read-out: Solubility pH 5.0 Concentration.
Setting [12] is: Table 7, rat binding selectivity, rCTR IC50 / rAmylin-R IC50.
Where [13] appears, read: Table 7a (preferred compounds), rat binding selectivity, rCTR IC50 / rAmylin-R IC50.
The mark [14] stands for this setting: ratio of rCTR bind IC50 to rAmylin-R bind IC50.

With `CC[C@H](C)[C@H](NC(=O)[C@H](C)NC(=O)CNC(=O)[C@H](Cc1ccccc1)NC(=O)[C@H](CC(N)=O)NC(=O)[C@@H]1CCCN1C(=O)[C@H](CO)NC(=O)[C@H](CO)NC(=O)[C@H](Cc1c[nH]cn1)NC(=O)[C@H](CCCNC(=N)N)NC(=O)[C@H](CC(C)C)NC(=O)[C@H](Cc1ccccc1)NC(=O)[C@H](CC(=O)O)NC(=O)[C@H](C)NC(=O)[C@H](CC(C)C)NC(=O)[C@H](CCCNC(=N)N)NC(=O)[C@H](CCC(N)=O)NC(=O)[C@@H](NC(=O)[C@H](C)NC(=O)[C@@H]1CSSC[C@H](NC(=O)[C@@H](N)CCCCNC(=O)CC[C@H](NC(=O)CCCCCCCCCCCCCCCCCCC(=O)O)C(=O)O)C(=O)N[C@@H](CC(N)=O)C(=O)N[C@@H]([C@@H](C)O)C(=O)N[C@@H](C)C(=O)N[C@@H]([C@@H](C)O)C(=O)N1)[C@@H](C)O)C(=O)N1CCC[C@H]1C(=O)N[C@@H](CO)C(=O)N[C@@H](CO)C(=O)N[C@H](C(=O)N[C@@H](CC(N)=O)C(=O)N[C@H](C(=O)NCC(=O)N1CCC[C@H]1C(=O)N[C@@H](CCC(=O)O)C(=O)N[C@H](C(=O)N[C@@H](Cc1ccc(O)cc1)C(N)=O)[C@@H](C)O)C(C)C)[C@@H](C)O` [Example 123] (H-K([γGlu-C20 diacid])CNTATCATQRLADFLRHSSPNFGAIPSSTNVGPETY-NH2; disulfide 2-7; N-terminus assumed), the “ThT pH 4.0 lag time (h)” value in data set [1] is listed as 30 h. Further, the solubility at 18 h in data set [2] (setting [4]), in data set [2] (setting [5]), in data set [2] (setting [6]), in data set [2] (setting [7]), in data set [2] (setting [8]) and in data set [2] (setting [9]) was not below 200 µM in each case. Also, the solubility at 18 h in data set [2] (setting [10]) and in data set [2] (setting [11]) was not below 200 µM in each case. Besides, the half-inhibitory concentration (IC50) (usually the midpoint of a concentration-inhibition curve) in data set [3] (Table 7) was found to be 300 pM. Further, the “Ratio rCT/rAmylin binding” value in data set [3] (setting [12]), in data set [3] (setting [13]) and in data set [3] (setting [14]) was 62.0 in each case.

Take `CC[C@H](C)[C@H](NC(=O)[C@H](C)NC(=O)CNC(=O)[C@H](Cc1ccccc1)NC(=O)[C@H](CC(N)=O)NC(=O)[C@@H]1CCCN1C(=O)[C@H](CO)NC(=O)[C@H](CO)NC(=O)[C@H](Cc1c[nH]cn1)NC(=O)[C@H](CCCNC(=N)N)NC(=O)[C@H](CC(C)C)NC(=O)[C@H](Cc1ccccc1)NC(=O)[C@H](CCC(=O)O)NC(=O)[C@H](C)NC(=O)[C@H](CC(C)C)NC(=O)[C@H](CCCNC(=N)N)NC(=O)[C@H](CCC(N)=O)NC(=O)[C@@H](NC(=O)[C@H](C)NC(=O)[C@@H]1CSSC[C@H](NC(=O)[C@@H](N)CCCCNC(=O)CC[C@H](NC(=O)CC[C@H](NC(=O)CCCCCCCCCCCCCCCCCCC(=O)O)C(=O)O)C(=O)O)C(=O)N[C@@H](CC(N)=O)C(=O)N[C@@H]([C@@H](C)O)C(=O)N[C@@H](C)C(=O)N[C@@H]([C@@H](C)O)C(=O)N1)[C@@H](C)O)C(=O)N1CCC[C@H]1C(=O)N[C@@H](CO)C(=O)N[C@@H](CO)C(=O)N[C@H](C(=O)N[C@@H](CC(N)=O)C(=O)N[C@H](C(=O)NCC(=O)N1CCC[C@H]1C(=O)N[C@@H](Cc1c[nH]cn1)C(=O)N[C@H](C(=O)N[C@@H](Cc1ccc(O)cc1)C(N)=O)[C@@H](C)O)C(C)C)[C@@H](C)O` [Example 124] (H-K([γGlu-γGlu-C20 diacid])CNTATCATQRLAEFLRHSSPNFGAIPSSTNVGPHTY-NH2; disulfide 2-7 (inferred)): the “ThT pH 4.0 lag time (h)” value in data set [1] is recorded as 45 h. Also, the solubility at 18 h in data set [2] (setting [4]) is not below 200 µM; in data set [2] (setting [5]) it was not below 200 µM; in data set [2] (setting [6]), not below 200 µM; in data set [2] (setting [7]), not below 200 µM; in data set [2] (setting [8]), 165 µM (≈ 752 µg/mL); in data set [2] (setting [9]), not below 200 µM. Moreover, the solubility at 18 h in data set [2] (setting [10]) and in data set [2] (setting [11]) was not below 200 µM each time. Besides, the IC50 in data set [3] (Table 7) stood at 288 pM. In addition, the “Ratio rCT/rAmylin binding” value in data set [3] (setting [12]), in data set [3] (setting [13]) and in data set [3] (setting [14]) was 73.0 each time.

In the case of `CC[C@H](C)[C@H](NC(=O)[C@H](C)NC(=O)CNC(=O)[C@H](Cc1ccccc1)NC(=O)[C@H](CC(N)=O)NC(=O)[C@@H]1CCCN1C(=O)[C@H](CO)NC(=O)[C@H](CO)NC(=O)[C@H](Cc1c[nH]cn1)NC(=O)[C@H](CCCNC(=N)N)NC(=O)[C@H](CC(C)C)NC(=O)[C@H](Cc1ccccc1)NC(=O)[C@H](CCC(=O)O)NC(=O)[C@H](C)NC(=O)[C@H](CC(C)C)NC(=O)[C@H](CCCNC(=N)N)NC(=O)[C@H](CCC(N)=O)NC(=O)[C@@H](NC(=O)[C@H](C)NC(=O)[C@@H]1CSSC[C@H](NC(=O)[C@@H](N)CCCCNC(=O)CC[C@H](NC(=O)CC[C@H](NC(=O)CCCCCCCCCCCCCCCCCCC(=O)O)C(=O)O)C(=O)O)C(=O)N[C@@H](CC(N)=O)C(=O)N[C@@H]([C@@H](C)O)C(=O)N[C@@H](C)C(=O)N[C@@H]([C@@H](C)O)C(=O)N1)[C@@H](C)O)C(=O)N1CCC[C@H]1C(=O)N[C@@H](CO)C(=O)N[C@@H](CO)C(=O)N[C@H](C(=O)N[C@@H](CC(N)=O)C(=O)N[C@H](C(=O)NCC(=O)N1CCC[C@H]1C(=O)N[C@@H](CCC(=O)O)C(=O)N[C@H](C(=O)N1CCC[C@H]1C(N)=O)[C@@H](C)O)C(C)C)[C@@H](C)O` [Example 125] (H-K([γGlu-γGlu-C20 diacid])CNTATCATQRLAEFLRHSSPNFGAIPSSTNVGPETP-NH2; disulfide 2-7 (inferred); N-terminus assumed), the “ThT pH 4.0 lag time (h)” value in data set [1] was found to be 23 h. Further, the solubility at 18 h in data set [2] (setting [4]), in data set [2] (setting [5]), in data set [2] (setting [6]), in data set [2] (setting [7]), in data set [2] (setting [8]) and in data set [2] (setting [9]) was not below 200 µM in each case. Also, the solubility at 18 h in data set [2] (setting [10]) and in data set [2] (setting [11]) was not below 200 µM each time. Moreover, in data set [3] (Table 7), the IC50 came to 152 pM. Besides, the “Ratio rCT/rAmylin binding” value in data set [3] (setting [12]) and in data set [3] (setting [13]) was 10.6 in each case.
